In ChEMBL document CHEMBL1201862, “PubChem BioAssay data set” (2004):
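The compound was tested at five concentrations on cells cultured in 96-well plates, with a 48-hour exposure period. GI50: concentration for 50% inhibition of growth.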 The source made the active and inactive calls. No stated cut-off is given here; in the data, active = GI50 up to about 1.1 µM and inactive = higher.

Experiments:
Assay in all cases: growth of human tumour cells (NCI), 48 h
[1] = test system: KM-20L2
[2] = test system: HL-60
[3] = test system: K562
[4] = test system: HT-29
[5] = test system: SNB-19
[6] = test system: CAKI-1
[7] = test system: A549
[8] = test system: SF-268
[9] = test system: SK-MEL-2
[10] = test system: TK-10
[11] = test system: LXFL 529
[12] = test system: NCI-H23
[13] = test system: HOP-92
[14] = test system: SF-295
[15] = test system: 786-0
[16] = test system: RPMI-8226
[17] = test system: OVCAR-3
[18] = test system: IGROV-1
[19] = test system: SR
[20] = test system: MOLT-4
[21] = test system: HOP-62
[22] = test system: OVCAR-8
[23] = test system: UACC-62
[24] = test system: SN12C
[25] = test system: OVCAR-5
[26] = test system: M19-MEL
[27] = test system: SW-620
[28] = test system: A498
[29] = test system: ACHN
[30] = test system: CCRF-CEM
[31] = test system: SK-MEL-28
[32] = test system: DLD-1
[33] = test system: DMS-114
[34] = test system: UO-31
[35] = test system: NCI-H226
[36] = test system: SK-MEL-5
[37] = test system: COLO 205
[38] = test system: SNB-75
[39] = test system: OVCAR-4
[40] = test system: SNB-78
[41] = test system: NCI-H522
[42] = test system: NCI-H460
[43] = test system: SK-OV-3
[44] = test system: HCC 2998
[45] = test system: UACC-257
[46] = test system: XF498
[47] = test system: KM12
[48] = test system: EKVX
[49] = test system: U-251
[50] = test system: Malme-3M
[51] = test system: M14
[52] = test system: HCT-116

Measured: GI50

Cc1cccc2c1N(C(=O)/C=C\C(=O)O)C(c1c(C)[nH]c3ccccc13)C2 (configuration not stated)
inactive: [1] > 100 µM | [2] 20.7 µM | [3] 36.6 µM | [4] > 100 µM | [5] 36.2 µM | [6] 30.3 µM | [7] > 100 µM | [8] > 10 µM | [9] 19.9 µM | [10] 73.5 µM | [11] 15.3 µM | [12] 43.8 µM | [13] 22.5 µM | [14] 44.8 µM | [15] 40.8 µM | [16] 28.4 µM | [17] > 10 µM | [18] > 10 µM | [19] 31 µM | [20] 31.2 µM | [21] > 100 µM | [22] 55.6 µM | [23] 18.9 µM | [24] 40.7 µM | [25] > 100 µM | [26] 22.7 µM | [27] 28.4 µM | [28] > 100 µM | [29] 84.3 µM | [30] 34.8 µM | [31] 21.9 µM | [32] 33.6 µM | [33] 19.9 µM | [34] > 100 µM | [35] 49.3 µM | [36] 18.2 µM | [37] > 10 µM | [38] > 10 µM | [39] 57.7 µM | [40] 31.2 µM | [41] 18.5 µM | [42] > 100 µM | [43] 30.8 µM | [44] 18.5 µM | [45] 33.8 µM | [46] 21.9 µM | [47] 33.5 µM | [48] > 100 µM | [49] > 10 µM | [50] 20.1 µM | [51] 55.1 µM | [52] 23.2 µM
